Data reported in US20200129583A1, “COMPOSITION FOR TREATING ACUTE URINARY RETENTION” (ANTEV LIMITED, priority 2018, published 2020).

How the values were obtained:
[1] = tested on: male patients suffering from BPH; assay: Prostate volume in phase II placebo-controlled study; assay type: in vivo, human; conditions: two s.c. injections of 60 mg at an interval of 48 hours
Procedure: (§1) A phase II randomised, double blind, placebo-controlled, multi-centre, multi national study was conducted in order to investigate the use of an Teverelix TFA formulation in the composition according to the invention. In said study the International Prostate Symptom Score (I-PSS), the prostate volume, the urinary flow rate and the testosterone level in males suffering from BPH were evaluated.
(§2) The Teverelix TFA formulation was reconstituted as follows. 0.8 ml 5% mannitol was added to 60 mg of the LHRH antagonist Teverelix trifluoroacetate. The mixture was stirred using vortex during one minute providing a dosage formulation of Teverelix TFA as a flowing milky pearly microcrystalline aqueous suspension. The suspension is made of microcrystals of about 10 μm length. Corresponding placebo formulations, without Teverelix TFA, were also prepared
(§3) Formulation A: 60 mg Teverelix TFA in 0.8 ml 5% mannitol
(§4) Two single injections of Formulation A and Formulation A-placebo was administered s.c. at an interval of 48 hours to 81 male patients (41 on A and 40 on A-placebo) suffering from BPH.

[2] = tested on: male patients suffering from BPH; assay: Urinary flow rate (Qmax) in phase II placebo-controlled study; assay type: in vivo, human; conditions: two s.c. injections of 60 mg at an interval of 48 hours
Procedure: as §1, §2, §3, §4

[3] = tested on: male patients suffering from BPH; assay: Side effects with the use of Teverelix TFA; set-up: species or system human; conditions: in vivo
Procedure: as §1, §4

[4] = tested on: male patients suffering from BPH; assay: International Prostate Symptom Score (I-PSS) in phase II placebo-controlled study; assay type: in vivo, human
Procedure: as §1, §2, §3, §4
The International Prostate Symptom Score (I-PSS) is based on the answers to seven questions concerning urinary symptoms and one question concerning quality of life. Each question concerning urinary symptoms allows the patient to choose one out of six answers indicating increasing severity of the particular symptom. The answers are assigned points from 0 to 5. The total score can therefore range from 0 to 35 (asymptomatic to very symptomatic).

[5] = tested on: male patients suffering from BPH; assay: Serum testosterone level in phase II placebo-controlled study; assay type: in vivo, human; conditions: two s.c. injections of 60 mg at an interval of 48 hours; FIG. 4
Procedure: as §1, §2, §3, §4

For “N-Ac-d-Nal^1, d-pCl-Phe^2, d-Pal^3, d-(Hci)^6, Lys(iPr)^8, d-Ala^10 trifluoroacetate [Teverelix TFA]”, the “time to prostate volume reduction after initiating therapy” value [1] was “within four weeks”, the prostate volume decrease ([1]; FIG. 2) was 11.5% and the “time to significant increase in the flow rate” value [2] was “within the first two weeks”. The “increase in maximum urinary flow rate (Qmax)” value ([2]; at 16 weeks) was 43%, the serious side effects [3] was “no serious side effects” and the IPSS reduction ([4]; at 2 weeks) was 12.6%. The IPSS reduction ([4]; at 16 weeks) was 33.9%, the “improvement in quality of life score (QoL)” value ([4]; at 16 weeks) was 32.8% and the “time to improvement of symptoms (I-PSS)” value ([4]; two s.c. injections of 60 mg at an interval of 48 hours) was “within two weeks”. For the same substance, the “improvement on I-PSS” value ([4]; two s.c. injections of 60 mg at an interval of 48 hours, 16-week study, FIG. 1) was 39.9%, the “reduction in the testosterone level” value [5] was “immediate reduction” and the “time for testosterone level to return to baseline levels” value [5] was “within eight weeks”.
